Assay results from ChEMBL document CHEMBL3991601, “The target landscape of clinical kinase drugs” (Science, 2017).
Active and inactive are the calls of the source.

How the values were obtained:
Actin-related protein 2 = Actin-related protein 2 (Homo sapiens, UniProt P61160)
[1] = target: Serine/threonine-protein kinase MRCK alpha (Homo sapiens, UniProt Q5VT25)
[2] = target: Tyrosine-protein kinase JAK1 (Homo sapiens, UniProt P23458)
[3] = target: Serine/threonine-protein kinase 10 (Homo sapiens, UniProt O94804)
Chain of Serine/threonine-protein kinase 10 (O94804 whole entry): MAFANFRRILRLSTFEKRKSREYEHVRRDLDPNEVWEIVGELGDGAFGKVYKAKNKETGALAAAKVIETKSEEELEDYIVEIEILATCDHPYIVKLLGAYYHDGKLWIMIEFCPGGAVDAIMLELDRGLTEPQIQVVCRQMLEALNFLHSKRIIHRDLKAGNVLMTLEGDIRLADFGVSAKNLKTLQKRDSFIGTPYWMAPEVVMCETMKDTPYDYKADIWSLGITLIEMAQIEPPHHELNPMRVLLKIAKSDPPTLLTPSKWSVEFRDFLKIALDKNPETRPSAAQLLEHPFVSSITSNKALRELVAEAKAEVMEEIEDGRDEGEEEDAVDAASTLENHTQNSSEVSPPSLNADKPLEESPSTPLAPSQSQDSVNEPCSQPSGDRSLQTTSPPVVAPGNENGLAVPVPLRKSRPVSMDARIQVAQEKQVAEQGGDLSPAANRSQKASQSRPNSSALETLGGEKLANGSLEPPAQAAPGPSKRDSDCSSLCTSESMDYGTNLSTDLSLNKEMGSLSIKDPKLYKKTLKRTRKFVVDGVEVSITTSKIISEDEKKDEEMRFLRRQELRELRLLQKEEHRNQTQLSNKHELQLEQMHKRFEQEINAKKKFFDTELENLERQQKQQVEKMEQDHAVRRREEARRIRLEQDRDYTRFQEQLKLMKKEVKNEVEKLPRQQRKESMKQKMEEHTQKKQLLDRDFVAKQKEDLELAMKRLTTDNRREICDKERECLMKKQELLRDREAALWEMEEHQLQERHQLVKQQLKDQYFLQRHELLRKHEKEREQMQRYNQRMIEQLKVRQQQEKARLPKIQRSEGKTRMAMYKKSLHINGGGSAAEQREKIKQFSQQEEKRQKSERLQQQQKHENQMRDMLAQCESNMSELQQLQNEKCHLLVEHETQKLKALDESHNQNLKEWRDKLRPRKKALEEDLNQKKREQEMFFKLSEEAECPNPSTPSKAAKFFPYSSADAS

[4] = target: T1, EKC/KEOPS complex subunit TP53RK (Homo sapiens, UniProt Q96S44)
T1 sequence (Q96S44 whole entry): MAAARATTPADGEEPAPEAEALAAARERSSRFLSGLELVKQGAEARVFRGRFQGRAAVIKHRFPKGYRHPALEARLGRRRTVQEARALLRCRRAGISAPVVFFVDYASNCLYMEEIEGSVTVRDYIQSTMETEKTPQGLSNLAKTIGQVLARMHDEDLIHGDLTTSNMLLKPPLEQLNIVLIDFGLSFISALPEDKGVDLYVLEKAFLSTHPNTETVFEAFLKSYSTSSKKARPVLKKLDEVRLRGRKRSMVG

[5] = target: Protein kinase C beta type (Homo sapiens, UniProt P05771)
Chain of Protein kinase C beta type (P05771 whole entry): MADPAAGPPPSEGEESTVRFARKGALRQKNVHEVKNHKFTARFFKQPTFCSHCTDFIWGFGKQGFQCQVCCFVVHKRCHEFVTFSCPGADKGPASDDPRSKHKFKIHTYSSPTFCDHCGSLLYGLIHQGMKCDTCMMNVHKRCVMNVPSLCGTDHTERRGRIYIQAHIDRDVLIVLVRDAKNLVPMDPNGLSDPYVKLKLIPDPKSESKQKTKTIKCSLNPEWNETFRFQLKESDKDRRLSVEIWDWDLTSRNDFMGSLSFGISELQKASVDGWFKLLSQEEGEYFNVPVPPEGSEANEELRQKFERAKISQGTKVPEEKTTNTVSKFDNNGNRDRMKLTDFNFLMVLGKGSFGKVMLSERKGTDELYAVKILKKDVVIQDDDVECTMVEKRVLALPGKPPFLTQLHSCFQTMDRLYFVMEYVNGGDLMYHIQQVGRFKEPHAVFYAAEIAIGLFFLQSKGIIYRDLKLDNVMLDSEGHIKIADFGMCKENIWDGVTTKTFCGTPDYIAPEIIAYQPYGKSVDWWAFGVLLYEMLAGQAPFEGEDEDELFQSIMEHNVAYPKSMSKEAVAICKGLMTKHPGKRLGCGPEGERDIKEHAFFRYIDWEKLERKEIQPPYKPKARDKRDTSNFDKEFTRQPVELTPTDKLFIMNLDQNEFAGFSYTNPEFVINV

[6] = target: cAMP-dependent protein kinase type II-alpha regulatory subunit (Homo sapiens, UniProt P13861)
Chain of cAMP-dependent protein kinase type II-alpha regulatory subunit (P13861 whole entry): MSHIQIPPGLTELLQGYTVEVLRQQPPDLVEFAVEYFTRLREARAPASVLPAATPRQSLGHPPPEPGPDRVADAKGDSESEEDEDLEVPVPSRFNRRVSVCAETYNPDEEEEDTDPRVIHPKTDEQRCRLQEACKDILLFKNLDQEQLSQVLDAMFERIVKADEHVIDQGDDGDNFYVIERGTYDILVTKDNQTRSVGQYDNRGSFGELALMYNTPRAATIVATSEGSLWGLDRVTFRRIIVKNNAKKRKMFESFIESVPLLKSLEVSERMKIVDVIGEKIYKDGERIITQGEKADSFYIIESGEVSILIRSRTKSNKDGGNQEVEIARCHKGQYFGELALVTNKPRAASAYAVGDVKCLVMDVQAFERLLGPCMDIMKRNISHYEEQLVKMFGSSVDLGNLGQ

[7] = target: T2, DNA replication licensing factor MCM4 (Homo sapiens, UniProt P33991)
T2 sequence (P33991 whole entry): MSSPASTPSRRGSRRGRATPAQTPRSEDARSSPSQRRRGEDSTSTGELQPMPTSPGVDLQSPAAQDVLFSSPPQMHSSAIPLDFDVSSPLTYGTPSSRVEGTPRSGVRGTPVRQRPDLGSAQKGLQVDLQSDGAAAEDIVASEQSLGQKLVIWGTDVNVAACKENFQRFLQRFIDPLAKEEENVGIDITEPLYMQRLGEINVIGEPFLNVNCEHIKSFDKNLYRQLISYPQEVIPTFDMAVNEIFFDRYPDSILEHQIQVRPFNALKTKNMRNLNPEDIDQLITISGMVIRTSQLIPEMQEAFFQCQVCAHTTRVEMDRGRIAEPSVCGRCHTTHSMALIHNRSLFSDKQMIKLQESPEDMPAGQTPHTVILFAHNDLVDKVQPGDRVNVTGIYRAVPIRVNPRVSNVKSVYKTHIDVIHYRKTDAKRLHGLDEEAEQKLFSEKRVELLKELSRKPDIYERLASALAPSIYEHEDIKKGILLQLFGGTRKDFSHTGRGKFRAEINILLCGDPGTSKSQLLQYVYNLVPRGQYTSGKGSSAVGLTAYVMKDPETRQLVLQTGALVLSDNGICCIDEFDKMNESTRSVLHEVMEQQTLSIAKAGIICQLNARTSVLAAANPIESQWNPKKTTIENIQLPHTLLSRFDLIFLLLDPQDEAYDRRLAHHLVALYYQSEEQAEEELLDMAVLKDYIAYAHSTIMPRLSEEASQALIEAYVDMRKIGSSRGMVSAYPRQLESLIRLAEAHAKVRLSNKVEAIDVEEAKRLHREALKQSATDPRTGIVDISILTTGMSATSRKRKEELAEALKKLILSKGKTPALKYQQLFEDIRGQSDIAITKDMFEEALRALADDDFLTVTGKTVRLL

[8] = target: 26S proteasome regulatory subunit 6B (Homo sapiens, UniProt P43686)
Chain of 26S proteasome regulatory subunit 6B (P43686 whole entry): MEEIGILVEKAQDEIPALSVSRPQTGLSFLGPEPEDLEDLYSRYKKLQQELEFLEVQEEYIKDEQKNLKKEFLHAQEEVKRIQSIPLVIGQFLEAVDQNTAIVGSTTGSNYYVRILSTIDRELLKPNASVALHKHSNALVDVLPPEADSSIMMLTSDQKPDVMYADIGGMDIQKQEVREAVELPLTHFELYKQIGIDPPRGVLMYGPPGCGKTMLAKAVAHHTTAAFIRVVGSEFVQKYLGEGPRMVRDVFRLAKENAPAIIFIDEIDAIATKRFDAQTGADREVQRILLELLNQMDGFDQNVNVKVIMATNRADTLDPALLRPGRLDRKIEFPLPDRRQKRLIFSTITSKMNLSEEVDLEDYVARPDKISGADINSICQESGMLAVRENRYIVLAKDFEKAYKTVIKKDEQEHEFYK

Scaffold protein ILK = target: T3, Scaffold protein ILK (Homo sapiens, UniProt Q13418)
T3 sequence (Q13418 whole entry): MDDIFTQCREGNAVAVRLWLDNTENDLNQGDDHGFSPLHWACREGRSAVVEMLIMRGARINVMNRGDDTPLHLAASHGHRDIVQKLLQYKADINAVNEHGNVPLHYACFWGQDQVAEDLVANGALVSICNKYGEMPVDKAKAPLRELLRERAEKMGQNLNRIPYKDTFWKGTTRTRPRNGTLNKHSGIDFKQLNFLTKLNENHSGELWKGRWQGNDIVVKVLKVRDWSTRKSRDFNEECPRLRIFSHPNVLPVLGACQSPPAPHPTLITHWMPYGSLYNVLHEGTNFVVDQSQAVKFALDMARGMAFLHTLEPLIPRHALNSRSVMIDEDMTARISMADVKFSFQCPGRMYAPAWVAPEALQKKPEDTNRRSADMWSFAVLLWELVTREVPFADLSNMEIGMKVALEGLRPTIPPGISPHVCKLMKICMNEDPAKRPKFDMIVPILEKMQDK
Further: in the data inactive means no Kd found up to 30 µM.

Chain of Tyrosine-protein kinase JAK1 (P23458 whole entry): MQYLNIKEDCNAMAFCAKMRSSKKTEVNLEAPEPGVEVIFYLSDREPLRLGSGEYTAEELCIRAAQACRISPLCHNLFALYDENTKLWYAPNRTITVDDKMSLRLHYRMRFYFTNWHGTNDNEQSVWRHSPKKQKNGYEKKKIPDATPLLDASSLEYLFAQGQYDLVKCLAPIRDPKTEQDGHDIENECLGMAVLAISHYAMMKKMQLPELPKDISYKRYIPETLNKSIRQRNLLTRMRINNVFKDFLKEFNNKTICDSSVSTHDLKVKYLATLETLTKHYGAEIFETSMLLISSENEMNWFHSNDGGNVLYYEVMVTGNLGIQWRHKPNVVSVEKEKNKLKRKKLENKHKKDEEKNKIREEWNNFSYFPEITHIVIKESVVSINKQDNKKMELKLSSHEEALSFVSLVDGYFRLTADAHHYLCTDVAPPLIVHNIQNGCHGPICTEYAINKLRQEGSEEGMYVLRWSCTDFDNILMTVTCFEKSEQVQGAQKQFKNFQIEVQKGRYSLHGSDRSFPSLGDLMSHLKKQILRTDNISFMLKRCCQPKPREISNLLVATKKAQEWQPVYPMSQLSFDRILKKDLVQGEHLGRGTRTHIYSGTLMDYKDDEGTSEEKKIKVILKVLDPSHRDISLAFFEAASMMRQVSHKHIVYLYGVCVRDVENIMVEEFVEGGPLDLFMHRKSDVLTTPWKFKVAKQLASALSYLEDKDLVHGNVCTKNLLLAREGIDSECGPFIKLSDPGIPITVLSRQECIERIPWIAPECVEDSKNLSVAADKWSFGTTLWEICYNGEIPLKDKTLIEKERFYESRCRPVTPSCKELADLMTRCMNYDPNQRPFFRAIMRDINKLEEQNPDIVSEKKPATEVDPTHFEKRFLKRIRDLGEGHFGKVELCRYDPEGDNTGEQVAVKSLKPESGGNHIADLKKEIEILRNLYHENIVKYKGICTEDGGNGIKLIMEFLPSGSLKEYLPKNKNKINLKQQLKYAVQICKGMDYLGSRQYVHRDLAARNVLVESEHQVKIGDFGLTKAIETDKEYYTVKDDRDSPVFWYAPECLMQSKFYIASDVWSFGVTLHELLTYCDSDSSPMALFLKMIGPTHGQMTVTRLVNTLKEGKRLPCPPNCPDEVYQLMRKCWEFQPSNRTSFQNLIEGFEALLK

Row | Kd (Actin-related protein 2) | Kd [2] | Kd [3] | Kd [4] | Kd [5] | Kd [6] | Kd [7] | Kd [8] | Kd (Scaffold protein ILK) | SMILES | Kd [1]
1 | > 30 µM (inactive) | > 30 µM (inactive) | > 30 µM (inactive) | > 30 µM (inactive) | > 30 µM (inactive) | > 30 µM (inactive) | 0.629 µM | > 30 µM (inactive) | > 30 µM (inactive) | COc1cc(Nc2ncc3c(n2)-c2ccc(Cl)cc2C(c2c(F)cccc2OC)=NC3)ccc1C(=O)O [ALISERTIB] | 
2 | > 30 µM (inactive) |  |  | > 30 µM (inactive) | > 30 µM (inactive) | > 30 µM (inactive) | > 30 µM (inactive) | > 30 µM (inactive) | > 30 µM (inactive) | CNC(=O)c1ccccc1Sc1ccc2c(/C=C/c3ccccn3)n[nH]c2c1 [AXITINIB] | 
3 | > 30 µM (inactive) |  |  | > 30 µM (inactive) | > 30 µM (inactive) | > 30 µM (inactive) | > 30 µM (inactive) | > 30 µM (inactive) | > 30 µM (inactive) | C[C@@H](Oc1cc(-n2cnc3ccc(CN4CCN(C)CC4)cc32)sc1C(N)=O)c1ccccc1C(F)(F)F [GSK-461364] | 
4 | > 30 µM (inactive) | > 30 µM (inactive) | > 30 µM (inactive) | > 30 µM (inactive) | > 30 µM (inactive) | > 30 µM (inactive) | > 30 µM (inactive) | > 30 µM (inactive) | > 30 µM (inactive) | CCn1cc(-c2ccnc3[nH]c(-c4cccc(CN(C)C)c4)cc23)c(-c2ccc(NC(=O)N(C)C)cc2)n1 [GSK-1070916] | > 30 µM (inactive)
5 | > 30 µM (inactive) | > 30 µM (inactive) |  | > 30 µM (inactive) | > 30 µM (inactive) | > 30 µM (inactive) | > 30 µM (inactive) | > 30 µM (inactive) | > 30 µM (inactive) | Cc1[nH]c(/C=C2\C(=O)Nc3ccccc32)c(C)c1CCC(=O)O [ORANTINIB] | 
6 | > 30 µM (inactive) | > 30 µM (inactive) | 0.515 µM (active) | > 30 µM (inactive) | > 30 µM (inactive) | > 30 µM (inactive) | > 30 µM (inactive) | > 30 µM (inactive) | > 30 µM (inactive) | NC(=O)c1c(OCc2c(F)cc(Br)cc2F)nsc1NC(=O)NCCCCN1CCCC1 [OSI-632] | 
7 | > 30 µM (inactive) |  | 0.309 µM (active) | > 30 µM (inactive) | > 30 µM (inactive) | > 30 µM (inactive) | > 30 µM (inactive) | > 30 µM (inactive) | > 30 µM (inactive) | CC(=O)NCC(=O)N1[C@@H]2CC[C@H]1c1ccc(Nc3ncc(C(F)(F)F)c(NC4CCC4)n3)cc12 [PF-03814735] | 
8 | > 30 µM (inactive) |  |  | > 30 µM (inactive) | > 30 µM (inactive) | > 30 µM (inactive) | > 30 µM (inactive) | > 30 µM (inactive) | > 30 µM (inactive) | O=C(NOCCO)c1cc(CN2OCCCC2=O)c(F)c(F)c1Nc1ccc(I)cc1F [RO-4987655] | 
9 | > 30 µM (inactive) |  |  | > 30 µM (inactive) | > 30 µM (inactive) | > 30 µM (inactive) | > 30 µM (inactive) | > 30 µM (inactive) | > 30 µM (inactive) | N#CC[C@H](C1CCCC1)n1cc(-c2ncnc3[nH]ccc23)cn1 [RUXOLITINIB] | 

Row | SMILES | Kd (Actin-related protein 2) | Kd [2] | Kd [3] | Kd [4] | Kd [5] | Kd [6] | Kd [7] | Kd [8] | Kd (Scaffold protein ILK) | Kd [1]
10 | CC(=O)c1cnc2ccc(-c3cc(Cl)c(O)c(Cl)c3)nc2c1N[C@H]1CC[C@H](CN(C)C)CC1 | > 30 µM (inactive) | > 30 µM (inactive) | 0.014 µM (active) | 0.311 µM (active) | 0.233 µM (active) | > 30 µM (inactive) | > 30 µM (inactive) | > 30 µM (inactive) |  | > 30 µM (inactive)
11 | Cn1cc(C2=C(c3cn(C4CCN(Cc5ccccn5)CC4)c4ccccc34)C(=O)NC2=O)c2ccccc21 [ENZASTAURIN] | > 30 µM (inactive) |  |  | > 30 µM (inactive) |  | > 30 µM (inactive) | > 30 µM (inactive) | > 30 µM (inactive) | > 30 µM (inactive) | 
